From ChEMBL document CHEMBL3351698, “Melleolides induce rapid cell death in human primary monocytes and cancer cells” (Bioorg Med Chem, 2014)
Activity calls are given as the source filed them. The calls are words filed in the database; no cut-off is given here. Starred links: 1 amine or outer side, 2 acyl side, 3 side chain; linkers in the order of their positions; H or OH if unused. Positions of bridges follow the written chain, without caps; N, C: chain ends. Non-standard residues stand in square brackets, D forms with d. Residues, ends and D or L forms follow the SMILES beside them. Chains are numbered I, II in the order given. Actinocin(9to1) = Cc1c2oc3c(C)ccc(C(=O)[*:1])c3nc-2c(C(=O)[*:2])c(N)c1=O; NMeV = CN[C@H](C(=O)O)C(C)C; Sar = CNCC(=O)O

Legend:
THP-1 = experiment: Cytotoxicity against human THP1 cells after 24 hrs by MTT assay; format: functional, cell-based; conditions: THP-1, 24 h
HeLa [1] = experiment: Cytotoxicity against human HeLa cells after 24 hrs by MTT assay; format: functional, cell-based
[2] = Cytotoxicity against human primary monocytes after 24 hrs by MTT assay; format: functional; conditions: Monocyte
K562 = experiment: Cytotoxicity against human K562 cells after 24 hrs by MTT assay; format: functional, cell-based; conditions: K562, 24 h
MONO-MAC-6 = experiment: Cytotoxicity against human MONO-MAC-6 cells after 24 hrs by MTT assay; format: functional, cell-based; conditions: MONO-MAC-6, 24 h
Monocyte [3] = experiment: Induction of cell death in human primary monocytes at 0.1 to 10 uM after 4 hrs by LDH release assay; format: functional, cell-based
Monocyte [4] = experiment: Cytotoxicity against human primary monocytes assessed as reduction in cell viability at 25 uM after 2 to 5 hrs by inverse MTT assay; format: functional
HeLa [5] = experiment: Cytotoxicity against human HeLa cells assessed as reduction in cell viability at 25 uM after 2 to 5 hrs by inverse MTT assay; format: functional, cell-based
Monocyte [6] = experiment: Cytotoxicity against human primary monocytes assessed as reduction in cell viability at 25 uM after 18 hrs by inverse MTT assay; format: functional
HeLa [7] = experiment: Cytotoxicity against human HeLa cells assessed as reduction in cell viability at 25 uM after 18 hrs by inverse MTT assay; format: functional, cell-based
Monocyte [8] = experiment: Induction of morphological changes in human primary monocytes assessed as blebs formation at 5 uM after 1 hr by light microscopy; format: functional, cell-based
Monocyte [9] = experiment: Induction of necrosis in human primary monocytes at 5 uM by PE Annexin V and 7-aminoactinomycin staining based flow cytometry; format: functional, cell-based
Monocyte [10] = experiment: Induction of morphological changes in human primary monocytes assessed as blebs formation at 5 uM after 15 mins by light microscopy; format: functional, cell-based
Monocyte [11] = experiment: Induction of morphological changes in human primary monocytes assessed as plasma membrane rupture at 5 uM after 1 hr by light microscopy; format: functional, cell-based
[12] = Cytotoxicity against human primary monocytes assessed as reduction in cell viability at 5 uM after 2 hrs by inverse MTT assay; format: functional, Monocyte
HeLa [13] = experiment: Cytotoxicity against human HeLa cells assessed as reduction in cell viability at 5 uM after 2 hrs by inverse MTT assay; format: functional
Monocyte [14] = experiment: Induction of apoptosis in human primary monocytes at 5 uM by PE Annexin V and 7-aminoactinomycin staining based flow cytometry; format: functional, cell-based
[15] = Reduction in metabolic activity in mitochondria isolated from human MONO-MAC-6 cells after 3 hrs up to 10 uM by MTT assay; format: functional; design: scale not given: the % may be the effect or the level left
Monocyte [16] = experiment: Induction of necrosis in human primary monocytes at 5 uM after 1 to 3 hrs by light microscopy; format: functional, cell-based
Monocyte [17] = experiment: Cytotoxicity against human primary monocytes up to 1 uM after 24 hrs by MTT assay; format: functional
[18] = Reduction in metabolic activity in mitochondria isolated from human MONO-MAC-6 cells after 3 hrs at 10 uM by MTT assay; format: functional
Monocyte [19] = experiment: Cytotoxicity against human primary monocytes assessed as reduction in cell viability at 1 uM after 2 to 5 hrs by inverse MTT assay; format: functional
HeLa [20] = experiment: Cytotoxicity against human HeLa cells assessed as reduction in cell viability at 1 uM after 2 to 5 hrs by inverse MTT assay; format: functional, cell-based
Monocyte [21] = experiment: Cytotoxicity against human primary monocytes assessed as reduction in cell viability at 1 uM after 18 hrs by inverse MTT assay; format: functional
HeLa [22] = experiment: Cytotoxicity against human HeLa cells assessed as reduction in cell viability at 1 uM after 18 hrs by inverse MTT assay; format: functional, cell-based
HeLa [23] = experiment: Cytotoxicity against human HeLa cells at 0.001 to 1 uM after 24 hrs by MTT assay; format: functional, cell-based
Monocyte [24] = experiment: Induction of necrosis in human primary monocytes at 3 uM by PE Annexin V and 7-aminoactinomycin staining based flow cytometry; format: functional, cell-based
HeLa [25] = experiment: Cytotoxicity against human HeLa cells assessed as reduction in cell viability at 3 uM after 18 hrs by inverse MTT assay; format: functional, cell-based
Monocyte [26] = experiment: Cytotoxicity against human primary monocytes assessed as reduction in cell viability at 3 uM after 18 hrs by inverse MTT assay; format: functional
HeLa [27] = experiment: Cytotoxicity against human HeLa cells assessed as reduction in cell viability at 3 uM after 2 hrs by inverse MTT assay; format: functional, cell-based
Monocyte [28] = experiment: Induction of apoptosis in human primary monocytes assessed as nuclear fragmentation at 3 uM after 3 hrs by light microscopy; format: functional, cell-based
Monocyte [29] = experiment: Induction of cell death in human primary monocytes at 3 uM after 4 hrs by LDH release assay; format: functional, cell-based
Monocyte [30] = experiment: Induction of apoptosis in human primary monocytes assessed as apoptotic bodies formation at 3 uM after 3 hrs by light microscopy; format: functional, cell-based
Monocyte [31] = experiment: Cytotoxicity against human primary monocytes assessed as reduction in cell viability at 3 uM after 2 hrs by inverse MTT assay; format: functional
Monocyte [32] = experiment: Cytotoxicity against human primary monocytes at 0.001 to 1 uM after 24 hrs by MTT assay; format: functional
Monocyte [33] = experiment: Induction of apoptosis in human primary monocytes at 3 uM by PE Annexin V and 7-aminoactinomycin staining based flow cytometry; format: functional, cell-based

SMILES: COc1cc(C)c(C(=O)O[C@@H]2C[C@@]3(C)C2=C(C=O)[C@@H](O)[C@@H]2CC(C)(C)C[C@@H]23)c(O)c1
- EC50 (THP-1): 2400 nM
- EC50 (HeLa [1]): 12.3 µM
- EC50 [2]: 3.1 µM
- EC50 (K562): 4.1 µM
- EC50 (MONO-MAC-6): 2.9 µM

SMILES: COc1cc(O)c(C(=O)O[C@@H]2C[C@]3(C)[C@H]4[C@@H](O)C(C)(C)C[C@@]4(O)C=C(CO)[C@]23O)c(C)c1Cl [MELLEOLIDE D]
- EC50 (THP-1): > 100000 nM
- EC50 (HeLa [1]): > 100 µM
- EC50 [2]: 60.7 µM
- Activity (Monocyte [3]): inactive
- EC50 (K562): > 100 µM
- EC50 (MONO-MAC-6): 48.6 µM

SMILES: C[C@@H]1C[C@@H]([C@H](O)CC2CC(=O)NC(=O)C2)C(=O)[C@@H](C)C1
- Activity (Monocyte [4]): inactive
- Activity (HeLa [5]): inactive
- Activity (Monocyte [6]): Active
- Activity (HeLa [7]): Active

SMILES: Cc1cc(O)cc(O)c1C(=O)O[C@@H]1C[C@@]2(C)C1=C(C=O)[C@@H](O)[C@@H]1CC(C)(C)C[C@@H]12 [DEHYDROARMILLYLORSELLINATE]
- EC50 (THP-1): 3000 nM
- EC50 (HeLa [1]): 1.6 µM
- EC50 [2]: 2.3 µM
- Activity (Monocyte [8]): Active
- Activity (Monocyte [9]): Active
- Activity (Monocyte [10]): Active
- Activity (Monocyte [11]): Active
- Activity [12]: 40%
- Activity (Monocyte [3]): Active
- Activity (HeLa [13]): 40%
- Activity (Monocyte [14]): inactive
- EC50 (K562): 5 µM
- Activity [15]: 50%
- EC50 (MONO-MAC-6): 4.2 µM
- Activity (Monocyte [16]): Active

SMILES: CC[C@H](C)[C@H](NC(=O)[C@H]1CCCCN1C)C(=O)N(C)[C@H](CCc1nc(C(=O)N[C@@H](Cc2ccccc2)C[C@H](C)C(=O)O)cs1)C(C)C
- Activity (Monocyte [17]): inactive
- EC50 (MONO-MAC-6): 0.03 µM

SMILES: N#CC(C#N)=NNc1cccc(Cl)c1
- Activity [18]: Active

SMILES: Cc1c2oc3c(C)ccc(C(=O)N[C@@H]4C(=O)N[C@H](C(C)C)C(=O)N5CCC[C@H]5C(=O)N(C)CC(=O)N(C)[C@@H](C(C)C)C(=O)O[C@@H]4C)c3nc-2c(C(=O)N[C@@H]2C(=O)N[C@H](C(C)C)C(=O)N3CCC[C@H]3C(=O)N(C)CC(=O)N(C)[C@@H](C(C)C)C(=O)O[C@@H]2C)c(N)c1=O (I: T[dV]P[Sar][NMeV] / II: T[dV]P[Sar][NMeV]; ester I:1-I:C, II:1-II:C; linker I:N-II:N via Actinocin(9to1))
- Activity (Monocyte [19]): inactive
- Activity (HeLa [20]): inactive
- Activity (Monocyte [21]): Active
- Activity (HeLa [22]): Active

SMILES: COc1cc(O)c(C(=O)O[C@@H]2C[C@@]3(C)C2=C(C=O)[C@@H](O)[C@@H]2CC(C)(C)C[C@@H]23)c(C)c1Cl [ARNAMIAL]
- EC50 (THP-1): 2900 nM
- EC50 (HeLa [1]): 4.9 µM
- EC50 [2]: 3.8 µM
- EC50 (K562): 2.3 µM
- EC50 (MONO-MAC-6): 3.2 µM

SMILES: CN[C@@H]1C[C@H]2O[C@@](C)([C@@H]1OC)n1c3ccccc3c3c4c(c5c6ccccc6n2c5c31)C(=O)NC4
- Activity (HeLa [23]): Active
- Activity (Monocyte [24]): inactive
- Activity (HeLa [25]): Active
- Activity (Monocyte [26]): Active
- Activity (HeLa [27]): inactive
- Activity (Monocyte [28]): Active
- Activity (Monocyte [29]): Active
- Activity (Monocyte [30]): Active
- Activity (Monocyte [31]): inactive
- Activity (Monocyte [32]): inactive
- Activity (Monocyte [33]): Active

SMILES: COc1cc(C)c(C(=O)O[C@@H]2C[C@]3(C)[C@H]4CC(C)(C)C[C@H]4C=C(C=O)[C@]23O)c(O)c1 [ARMILLARIN]
- EC50 (THP-1): 4800 nM
- EC50 (HeLa [1]): 16.7 µM
- EC50 [2]: 43.2 µM
- EC50 (K562): 23.7 µM
- EC50 (MONO-MAC-6): 6.6 µM

SMILES: COc1cc(O)c(C(=O)O[C@@H]2C[C@]3(C)[C@H]4CC(C)(C)C[C@H]4C=C(C=O)[C@]23O)c(C)c1Cl [ARMILLARIDIN]
- EC50 (THP-1): 4500 nM
- EC50 (HeLa [1]): 9.2 µM
- EC50 [2]: 12.3 µM
- EC50 (K562): 8.9 µM
- EC50 (MONO-MAC-6): 5.6 µM
